Laboratory results published in patent publication US12458630B2, “Combination therapy for cancer” (The Regents of the University of California, priority 2020, dated 2025).
Entries after “also recorded” stand apart in the source; their conditions may differ.

Tested on: MIA PaCa-2 cells
Assay: LC3 puncta / LC3-LAMP1 immunofluorescence
Assay type: cell-based, human
Conditions: MIA PaCa-2 cells +/- MRT68921
Experimental: Cell imaging. Immunostaining was performed as described^44. Cells were cultured on coverslips and fixed in 4% PFA for 10 min at room temperature. After washing twice in PBS, cells were incubated in PBS containing 10% FBS to block nonspecific sites of antibody adsorption. The cells were then incubated with the appropriate primary antibodies (diluted 1:100) and secondary antibodies (diluted 1:500) in PBS containing 10% FBS with or without 0.1% saponin. For cell macropinosome visualization, 24 hrs after seeding, the cells were serum starved for 18 hrs. Macropinosomes were marked using a high-molecular-mass (70 KD) TMR-Dextran (Invitrogen)-uptake assay, wherein TMR-DEX was added to serum-free medium at a final concentration of 1 mg/ml for 30 min at 37° C. At the end of the incubation period, the cells were rinsed five times in cold PBS and immediately fixed in 4% PFA. For tissue macropinosome visualization^45, fresh pancreata were cut into pieces with an approximate 5-mm cuboidal shape. […]
Quantification and statistics. To quantify the number of LC3 puncta, a total of 30 cells were recorded and analyzed using the LAS X measurement program on the TCS SPE Leica. Macropinosomes were quantified by using the ‘Analyze Particles’ feature in ImageJ (National Institutes of Health). […]

CN1CCc2cc(Nc3ncc(C4CC4)c(NCCCNC(=O)C4CCC4)n3)ccc2C1 [MRT68921]
autophagosome (LC3) puncta per cell: less autophagosomes; also recorded: reduced autophagosomes; also recorded: significantly abolished
